In PubChem BioAssay (NCI):
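Tested at 5 concentrations; 48 h exposure; 96-well plates; endpoints linearly interpolated, else capped at highest concentration. TGI is the concentration that stops growth completely.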

What was measured:
Test in all cases: NCI tumour cell line growth inhibition, 48 h
COLO 205 colon = test system: COLO 205 colon
DU-145 prostate = test system: DU-145 prostate
HCT-15 colon = test system: HCT-15 colon
HS 578T breast = test system: HS 578T breast
KM12 colon = test system: KM12 colon
M14 melanoma = test system: M14 melanoma
MDA-MB-231 breast = test system: MDA-MB-231 breast
NCI/ADR-RES ovarian = test system: NCI/ADR-RES ovarian
OVCAR-8 ovarian = test system: OVCAR-8 ovarian
SF-268 CNS = test system: SF-268 CNS
SK-OV-3 ovarian = test system: SK-OV-3 ovarian
SN12C renal = test system: SN12C renal
T-47D breast = test system: T-47D breast
UACC-62 melanoma = test system: UACC-62 melanoma
UO-31 renal = test system: UO-31 renal

| Compound | TGI (COLO 205 colon) [µM] | TGI (DU-145 prostate) [µM] | TGI (HCT-15 colon) [µM] | TGI (HS 578T breast) [µM] | TGI (KM12 colon) [µM] | TGI (M14 melanoma) [µM] | TGI (MDA-MB-231 breast) [µM] | TGI (NCI/ADR-RES ovarian) [µM] | TGI (OVCAR-8 ovarian) [µM] | TGI (SF-268 CNS) [µM] | TGI (SK-OV-3 ovarian) [µM] | TGI (SN12C renal) [µM] | TGI (T-47D breast) [µM] | TGI (UACC-62 melanoma) [µM] | TGI (UO-31 renal) [µM] |
| --- | --- | --- | --- | --- | --- | --- | --- | --- | --- | --- | --- | --- | --- | --- | --- |
| O=C(O)CN=C(C(=NCC(=O)O)c1ccccc1)c1ccccc1 | > 100 | > 100 | > 100 | > 100 | > 100 | > 100 | > 100 | > 100 | > 100 | > 100 | > 100 | > 100 | > 100 | > 100 | > 100 |
| CCSc1c(C)c2c(n(Cc3ccc(OC)cc3)c1=O)Cc1ccccc1C2 | > 100 | > 100 | > 100 | > 100 | > 100 | 27.3 | 94.7 | 74.5 | > 100 | > 100 | > 100 | 46.5 | > 100 | > 100 | > 100 |
| O=c1cc(CO)n(CCc2c[nH]c3ccccc23)cc1O | > 100 | 83.3 | > 100 | > 100 | > 100 | > 100 | > 100 | 99.6 | > 100 | 53.2 | > 100 | > 100 | 80.5 | > 100 | > 100 |
| COC(=O)c1ccc(Oc2nc3ccccc3nc2-c2cccs2)cc1 | > 100 | > 100 | > 100 | 63.3 | > 100 | > 100 | 57.8 | > 100 | > 100 | 66 | > 100 | > 100 | > 100 | > 100 | > 100 |
| O[C@@]1(c2cccs2)c2cccc(Cl)c2[C@](O)(c2cccs2)c2cccc(Cl)c21 | 38.6 | 64.6 | 61.7 | 49.2 | 34 | 31.5 | 71 | > 100 | > 100 | 66.8 | 74.2 | 34.1 | > 100 | 23.8 | > 100 |
| Cc1cccc2[nH]c3cc(O)cc(O)c3c(=O)c12 | > 10 | > 10 | > 10 | > 10 | > 10 | > 10 | > 10 | > 10 | > 10 | > 10 | > 10 | > 10 | > 10 | > 10 | > 10 |
| Nc1nc(Cl)c(N)c(NCC2(CO)CC(Cc3ccccc3)C2)n1 (stereo not given) | > 100 | > 100 | > 100 | > 100 | > 100 | > 100 | > 100 | > 100 | > 100 | > 100 | > 100 | > 100 | > 100 | > 100 | > 100 |
| CC(NC(=O)C(OC(=O)C(C)NC(=O)OC(C)(C)C)C(C)C)C(=O)OC(C(=O)O)C(C)C (stereo not given) | > 100 | > 100 | > 100 | > 100 | > 100 | > 100 | > 100 | > 100 | > 100 | > 100 | > 100 | > 100 | > 100 | > 100 | > 100 |
| COc1ccc(/C(CCl)=C(\Nc2ccccc2)c2ccc(OC)c(OC)c2)cc1OC | > 100 | > 100 | > 100 | > 100 | > 100 | > 100 | > 100 | > 100 | > 100 | > 100 | > 100 | > 100 | > 100 | > 100 | > 100 |
| COc1cc(O)c2c(=O)c(OC)c(-c3ccc4c(c3)OCO4)oc2c1 | > 100 | > 100 | > 100 | > 100 | > 100 | > 100 | > 77.4 | > 100 | > 100 | 40 | 81 | > 100 | > 100 | > 100 | > 100 |
| CC1CC(C)[C@H](O)C([C@H](O)CC2CC(=O)N(C)C(=O)C2)C1 (stereo not given in full) | > 100 | > 100 | > 100 | > 100 | > 100 | > 100 | > 100 | > 100 | > 100 | > 100 | > 100 | > 100 | > 100 | > 100 | > 100 |
| N#Cc1nc(CSCc2ccccc2)oc1N | > 100 | > 100 | > 100 | > 100 | > 100 | > 100 | > 100 | > 100 | > 100 | > 100 | > 100 | > 100 | > 100 | > 100 | > 100 |
| [N-]=[N+]=Nc1ccc(NCCCCCC(=O)ON2C(=O)CCC2=O)c([N+](=O)[O-])c1 | > 100 | > 100 | > 100 | 97.2 | > 100 | > 100 | > 100 | > 100 | > 100 | > 100 | > 100 | > 100 | > 100 | > 100 | > 100 |
| CCC(C)C(C(=O)N/N=C1/SCC(=O)N1C)C(=O)N/N=C1/SCC(=O)N1C (stereo not given) | > 100 | > 100 | > 100 | > 100 | > 100 | > 100 | > 100 | > 100 | > 100 | > 100 | > 100 | > 100 | > 100 | > 100 | > 100 |
| CC(C)(C)OC(=O)NC1CC=CCC1NC(=O)OC(C)(C)C (stereo not given) | > 100 | > 100 | > 100 | > 100 | > 100 | > 100 | > 100 | > 100 | > 100 | > 100 | > 100 | > 100 | > 100 | > 100 | > 100 |
| CC(=O)NC1=C(C)C(=O)c2c(nc3n2CCC3OC(=O)c2ccccc2)C1=N (stereo not given) | 3.27 | 3.44 | 7.47 | 5.4 | 11.6 | 2.76 | 6.45 | 8.52 | 8.5 | 6.28 | 6.59 | 3.16 | 10.9 | 1.09 | 4.34 |
| COc1ccc(OC)c([N+](=O)[O-])c1-c1nc2sccn2c1/C=N/N=C(N)N | > 100 | > 100 | > 100 | 92.6 | 81.5 | > 100 | > 100 | > 100 | > 100 | > 100 | > 100 | > 100 | > 100 | > 100 | > 100 |
| CSc1c(C#N)c(O)n(-c2ccc(C)cc2)c(=O)c1C#N | > 100 | > 100 | > 100 | > 100 | > 100 | > 100 | > 100 | > 100 | > 100 | > 100 | > 100 | > 100 | > 100 | > 100 | > 100 |
| NCC[Se][Se]CCN | 14.6 | 26.4 | 22.1 | 82.2 | 20.6 | 13.3 | 25.7 | 58 | 38.1 | 32.5 | 25.8 | 21.5 | 64.4 | 31.1 | 13.3 |
| O=c1[nH]c(=O)n(C2CC(O)C(CO)O2)cc1OCCc1ccccc1 (stereo not given) | > 100 | > 100 | > 100 | > 100 | > 100 | > 100 | > 100 | > 100 | > 100 | > 100 | > 100 | > 100 | > 100 | > 100 | > 100 |
| CCC(CS(=O)(=O)O)[N+](=O)[O-] (stereo not given) | > 100 | > 100 | > 100 | > 100 | > 100 | > 100 | > 100 | > 100 | > 100 | > 100 | > 100 | > 100 | > 100 | > 100 | > 100 |
